IC50, Dmax and DC50 data for 17 compounds are collected here from patent US20250197387A1, “BCL-XL DEGRADERS AND USES THEREOF” (Kymera Therapeutics, Inc., priority 2021, published 2025).

Common to all, as to type: cell-based
The test system of one assay is Caki-2 cells. Briefly: CTG (CellTiter-Glo) cell viability assay, Caki-2. The settings on record: Homo sapiens, 72 h, 3 day incubation, read-out: CTG Chempartner - Caki-2 3 day: Average external-IC50. The essentials:
(§1)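 MOLT-4 and Caki-2 cells at 10,000 cells/well exposed 3 days at 37° C., 5% CO2 to 9 doses (1:3, top 10 μM, 0.2% DMSO). Viability by CellTiter-Glo luminescence; IC50 from three-parameter logistic fit.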
In general terms: ATP-based viability assays read luminescence as a measure of living cells.

The next assay relates to MOLT-4 cells. Put plainly: CTG (CellTiter-Glo) cell viability assay, MOLT-4. To be noted: Homo sapiens, 3 day incubation, read-out: CTG Cell Viability Assay - MOLT-4 3 day: Average external-IC50. In outline:
as §1

For the next assay, the target named is T1, BCL-XL (Homo sapiens, UniProt Q07817).
T1 construct: endogenous in cells; host or cells: MOLT-4
Put plainly: Bcl-xL ELISA degradation in MOLT-4 cells, 6 h. The settings on record: for DC50: read-out: Bcl-xL ELISA in MOLT-4 degradation 6 h: Mean external-Abs DC50. Here is the method: The letter codes for BCL-XL DC50 include: A (<0.01 μM); B (0.01-0.1 μM); C (>[…]); D (>0.5-1.0 μM); and E (>1.0 μM). The letter codes for Dmax % include A (>75%); B (50 to 75%); C (<50%).
A general note: An ELISA detects its analyte on a solid surface through an enzyme-linked reagent.

The structures appear in SMILES notation. Read-outs that look alike come from different tables or passages of the source.

T1 sequence (Q07817 whole entry): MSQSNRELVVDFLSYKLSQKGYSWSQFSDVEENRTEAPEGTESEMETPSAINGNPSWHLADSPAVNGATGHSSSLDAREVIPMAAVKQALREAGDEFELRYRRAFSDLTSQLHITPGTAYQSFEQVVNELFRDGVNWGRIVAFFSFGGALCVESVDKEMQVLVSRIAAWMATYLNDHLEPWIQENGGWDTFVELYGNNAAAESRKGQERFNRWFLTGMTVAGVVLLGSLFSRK

As usually defined, the IC50 is the point on the concentration scale where inhibition reaches its midpoint. A word on the Dmax: it is the largest share of the target that was removed. A lower Dmax goes with a partial loss of target. One may read the DC50 as the concentration at which degradation of the target reaches its halfway point. Take `Cc1ncsc1-c1ccc([C@H](C)NC(=O)[C@@H]2C[C@@H](OC(=O)CCP(=O)(O)O)CN2C(=O)[C@@H](NC(=O)C2CCN(c3ccc(S(=O)(=O)NC(=O)c4nc(N5CCc6cccc(C(=O)Nc7nc8ccccc8s7)c6C5)ccc4-c4cnn(CC5CCCCC5)c4C)cc3)CC2)C(C)(C)C)cc1` [I-350]: the IC50 with Caki-2 cells lay in the range of 1000 to 10000 nM. Also, in the assay with MOLT-4 cells (72 h), the 50% inhibitory concentration (IC50) was in the range of 100 to 1000 nM. Besides, at BCL-XL, the Dmax was over 75% and the DC50 was in the range of 10 to 100 nM.
Turning to `C#Cc1ccc([C@H](CO)NC(=O)[C@@H]2C[C@@H](O)CN2C(=O)[C@@H](NC(=O)CCNCCS(=O)(=O)NC(=O)c2nc(N3CCc4cccc(C(=O)Nc5nc6cccnc6s5)c4C3)ccc2-c2cnn(CC3CCCCC3)c2C)C(C)(C)C)cc1` [I-378], the half-inhibitory concentration (IC50) with Caki-2 cells was over 10000 nM. The half-maximal inhibitory concentration (IC50) in the assay on MOLT-4 cells (MOLT-4, 72 h) was 100 to 1000 nM. Besides, at BCL-XL, the Dmax was over 75% and the DC50 was in the range of 10 to 100 nM.
Taken in the same sequence, the figures for `Cc1cc(N(C)c2ccc(-c3cnn(CC45CC6CC(CC(C6)C4)C5)c3C)c(C(=O)NS(=O)(=O)CCCCCC(=O)N[C@H](C(=O)N3C[C@H](O)C[C@H]3C(=O)N[C@@H](C)c3ccc4c(c3)c(C)nn4C)C(C)(C)C)n2)nnc1Nc1nc2ccccc2s1` (single isomer, unassigned) [I-491] were over 10000 nM, under 100 nM, over 75% and under 10 nM.
For the compound `C#Cc1ccc([C@H](C)NC(=O)[C@@H]2C[C@@H](O)CN2C(=O)[C@@H](NC(=O)CCCCCS(=O)(=O)NC(=O)c2nc(N(C)c3cc(C)c(Nc4nc5ccccc5s4)nn3)ccc2-c2cnn(CC34CC5CC(CC(C5)C3)C4)c2C)C(C)(C)C)c(O)c1` [I-475], the IC50 in the assay with Caki-2 cells is over 10000 nM. Moreover, in the assay on MOLT-4 cells (MOLT-4, 72 h), the IC50 is under 100 nM. Moreover, on BCL-XL, the Dmax was over 75% and the DC50 is under 10 nM.
Regarding `C#Cc1ccc(CNC(=O)[C@@H]2C[C@@H](O)CN2C(=O)[C@H](NC(=O)CCCCCS(=O)(=O)NC(=O)c2nc(N3CCc4cccc(C(=O)Nc5nc6ccccc6s5)c4C3)ccc2-c2cnn(CC3CCCCC3)c2C)C(C)(C)CCO)cc1` [I-355], the IC50 in the assay on Caki-2 cells was over 10000 nM. Besides, in the assay on MOLT-4 cells (MOLT-4, 72 h), the IC50 lay in the range of 1000 to 3000 nM. Besides, on BCL-XL, the Dmax is over 75% and the DC50 lay in the range of 100 to 500 nM.
With `Cc1ncsc1-c1ccc([C@H](C)NC(=O)[C@@H]2C[C@@H](O)CN2C(=O)[C@@H](NC(=O)CCCCCS(=O)(=O)NC(=O)c2nc(N3CCc4cccc(C(=O)Nc5nc6ccccc6s5)c4C3)ccc2-c2cccc(OC(C)C)c2C)C(C)(C)C)cc1` [I-309], in the assay with Caki-2 cells, the IC50 was 1000 to 10000 nM. The 50% inhibitory concentration (IC50) in the assay with MOLT-4 cells (MOLT-4, 72 h) lay within 1000 to 3000 nM. At BCL-XL, the Dmax fell in the range of 50 to 75% and the half-maximal degradation concentration (DC50) was in the range of 100 to 500 nM.
For `Cc1ncsc1-c1ccc([C@H](C)NC(=O)[C@@H]2C[C@@H](O)CN2C(=O)[C@@H](NC(=O)C2CCN(C3CCN(S(=O)(=O)NC(=O)c4nc(N5CCc6cccc(C(=O)Nc7nc8ccccc8s7)c6C5)ccc4-c4cnn(CC5CCCCC5)c4C)CC3)CC2)C(C)(C)C)cc1` [I-308] the same measures were 1000 to 10000 nM, under 100 nM, over 75% and 100 to 500 nM.
Taken in the same sequence, the figures for `COc1nn(C)c2ccc([C@@H](C)NC(=O)[C@@H]3C[C@@H](O)CN3C(=O)[C@@H](NC(=O)CCCCCS(=O)(=O)NC(=O)c3nc(N4CCc5cccc(C(=O)Nc6nc7cccnc7s6)c5C4)ccc3-c3cnn(CC4CCCCC4)c3C)C(C)(C)C)cc12` [I-490] were over 10000 nM, 100 to 1000 nM, over 75% and 100 to 500 nM.
For the compound `Cc1ncsc1-c1ccc([C@H](C)NC(=O)[C@@H]2C[C@@H](O)CN2C(=O)[C@@H](NC(=O)COCCOCCS(=O)(=O)NC(=O)c2nc(N3CCc4cccc(C(=O)Nc5nc6ccccc6s5)c4C3)ccc2-c2cnn(CC3CCCCC3)c2C)C(C)(C)C)cc1` [I-463], the 50% inhibitory concentration (IC50) in the assay with Caki-2 cells was in the range of 1000 to 10000 nM. The IC50 with MOLT-4 cells (MOLT-4, 72 h) is under 100 nM. In addition, at BCL-XL, the Dmax was over 75% and the DC50 is 10 to 100 nM.
For `C#Cc1ccc(CNC(=O)[C@@H]2C[C@@H](O)CN2C(=O)[C@@H](NC(=O)CCCCCS(=O)(=O)NC(=O)c2nc(N(C)c3cc(C)c(Nc4nc5ccccc5s4)nn3)ccc2-c2cnn(CC34CC5CC(CC(C5)C3)C4)c2C)C(C)(C)C)cc1` [I-379] the same measures were over 10000 nM, under 100 nM, over 75% and under 10 nM.
Taken in the same sequence, the figures for `Cc1cc(N(C)c2ccc(-c3cnn(CC45CC6CC(CC(C6)C4)C5)c3C)c(C(=O)NS(=O)(=O)CCCCCC(=O)N[C@H](C(=O)N3C[C@H](O)C[C@H]3C(=O)NCc3ccc(-c4scnc4C)cc3)C(C)(C)C)n2)nnc1Nc1nc2cccnc2s1` [I-451] were over 10000 nM, 100 to 1000 nM, over 75% and 10 to 100 nM.
On to `Cc1ncsc1-c1ccc([C@H](C)NC(=O)[C@@H]2C[C@@H](O)CN2C(=O)[C@@H](NC(=O)C2CCN(c3ccc(S(=O)(=O)NC(=O)c4nc(N5CCCc6c5nnc(Nc5nc7ccccc7s5)c6C)ccc4-c4cnn(CC5CCCCC5)c4C)cc3)CC2)C(C)(C)C)cc1` [I-310], for which the IC50 is over 10000 nM in the assay with Caki-2 cells and under 100 nM in the assay with MOLT-4 cells (MOLT-4, 72 h). The compound further had a maximal degradation (Dmax) at BCL-XL of over 75%. Further, the DC50 at BCL-XL lay within 10 to 100 nM.
Taken in the same sequence, the figures for `Cc1ncsc1-c1ccc([C@H](C)NC(=O)[C@@H]2C[C@@H](O)CN2C(=O)[C@@H](NC(=O)CCCCCS(=O)(=O)NC(=O)c2nc(N3CCc4cccc(C(=O)Nc5nc6ccccc6s5)c4C3)ccc2-c2ccnc(N(C)C(C)C)c2C)C(C)(C)C)cc1` [I-333] were over 10000 nM, 100 to 1000 nM, 50 to 75% and 100 to 500 nM.
Taken in the same sequence, the figures for `Cc1cc(N(C)c2ccc(-c3cnn(CC45CC6CC(CC(C6)C4)C5)c3C)c(C(=O)NS(=O)(=O)CCCCCC(=O)N[C@H](C(=O)N3C[C@H](O)C[C@H]3C(=O)NCc3ccc(-c4scnc4C)cc3)C(C)(C)C)n2)nnc1Nc1nc2ccccc2s1` [I-367] were over 10000 nM, under 100 nM, over 75% and 10 to 100 nM.
Take `Cc1ncsc1-c1ccc([C@H](C)NC(=O)[C@@H]2C[C@@H](O)CN2C(=O)[C@@H](NC(=O)C2CCN(c3ccc(S(=O)(=O)NC(=O)c4nc(N5CCc6cccc(C(=O)Nc7nc8ccccc8s7)c6C5)ccc4-c4cnn(CC5(OCCO)CCCCC5)c4C)cc3)CC2)C(C)(C)C)cc1` [I-409]: the IC50 in the assay with Caki-2 cells is over 10000 nM. In the assay on MOLT-4 cells (MOLT-4, 72 h), the IC50 is under 100 nM. For the same compound, on BCL-XL, the maximal degradation (Dmax) was over 75% and the DC50 is 10 to 100 nM.
Taken in the same sequence, the figures for `C#Cc1ccc([C@H](CO)NC(=O)[C@@H]2C[C@@H](O)CN2C(=O)[C@@H](NC(=O)CCCCCS(=O)(=O)NC(=O)c2nc(N3CCc4cccc(C(=O)Nc5nc6cccnc6s5)c4C3)ccc2-c2cnn(CC3CCCCC3)c2C)C(C)(C)C)cc1` [I-488] were over 10000 nM, under 100 nM, over 75% and 10 to 100 nM.
For `Cc1ncsc1-c1ccc([C@H](C)NC(=O)[C@@H]2C[C@H](O)CN2C(=O)[C@@H](NC(=O)C2CCN(c3ccc(S(=O)(=O)NC(=O)c4nc(N5CCc6cccc(C(=O)Nc7nc8ccccc8s7)c6C5)ccc4-c4cnn(CC5CCCCC5)c4C)cc3)CC2)C(C)(C)C)cc1` [I-295] the same measures were 1000 to 10000 nM, 100 to 1000 nM, 50 to 75% and 10 to 100 nM.
